Measurements: patent US20210284668A1, “GOLD (I)-PHOSPHINE 1,2,3-TRIAZOLE DERIVATIVES WITH ANTIBIOTIC PROPERTIES” (Centre National de la Recherche Scientifique, priority 2018, published 2021)
“And” between values parts separate entries of the source, which are not always exact repeats. Equal entries are not always repeated.

What was measured:
S. aureus ATCC25923 = experiment: MIC by microdilution, S. aureus ATCC25923; format: cell-based, Staphylococcus aureus; details: S. aureus ATCC25923 (MecA negative, wild-type), Mueller-Hinton broth, in duplicate
Experimental: (§1) The antibacterial profile of each derivative was evaluated by the standard microdilution method for susceptibility testing on 16 different strains, following the guidelines of CLSI. The selected panel included: • S. aureus ATCC25923 (MecA negative, wild-type) • S. aureus ATCC29213 (MecA negative, wild-type) • S. aureus ATCC700699 (MecA positive, glycopeptide resistant) • S. aureus ST20131365 (MecA positive, glycopeptide resistant) • S. epidermidis ATCC14990 (MecA negative, wild-type) • S. epidermidis ATCC35984 (MecA positive) • S. epidermidis ST20140436 (MecA positive, glycopeptide resistant) • S. epidermidis ST20150446 (MecA positive, glycopeptide resistant) • E. faecalis JH2-2 (wild-type) • E. faecalis UCN41 (VanA positive, glycopeptide resistant) • E. faecalis V583 (VanB positive, glycopeptide resistant) • E. faecium ATCC19434T (wild-type) • E. faecium BM4147 (VanA positive, glycopeptide resistant) • E. faecium AUS0004 (VanB positive, glycopeptide resistant) • E. coli ATCC25922 (wild-type) • Clostridium difficile ATCC9689 (wild-type)
(§2) Both series issued from the SAR study were evaluated for their antibacterial activity on a panel of characterized strains obtained from the French National Reference Centers for Staphylococci (Lyon, Pr. Fréderique Laurent) and for Enterococci (Caen, Pr. Vincent Cattoir), respectively. As shown in the following tables, both series contain very active compounds on multi-resistant Gram-positive bacteria (Minimal Inhibitory Concentrations lower than comparator antibiotic ampicillin). Furthermore, a very important antibacterial effect has been shown too on a strain of Clostridium difficile, a Gram-positive, spore-forming, bacillus responsible for post-antibiotic diarrhoae.
(§3) The antibacterial activity of test compounds was evaluated on a selected panel of Gram-positive (4 Staphylococcus aureus, 4 Staphylococcus epidermidis, 3 Enterococcus faecalis, 3 Enterococcus faecium, 1 Clostridium difficile) and Gram-negative strains (1 Escherichia coli, 1 Klebsiella pneumoniae, 1 Pseudomonas aeruginosa, 1 Acinetacter baumannii) with known features of antibiotic resistance (from wild-type susceptibility to multi-drug resistance). The Minimal Inhibitory Concentration (MIC) of test compounds was determined in duplicate by the microdilution method in 96-well microplates with a final volume of 100 μL per well and Mueller-Hinton broth as the growth medium, as recommended by the CLSI (Clinical and Laboratory Standards Institute, document Mo7-A10, USA).

S. aureus ATCC29213 = experiment: MIC by microdilution, S. aureus ATCC29213; format: cell-based, Staphylococcus aureus; details: S. aureus ATCC29213 (MecA negative, wild-type), Mueller-Hinton broth, in duplicate
Experimental: as §1, §2, §3

S. aureus ATCC700699 = experiment: MIC by microdilution, S. aureus ATCC700699; format: cell-based, Staphylococcus aureus; set-up: unit not given here; details: S. aureus ATCC700699 (MecA positive, glycopeptide resistant), in duplicate
Experimental: as §1, §2, §3

S. aureus ST20131365 = experiment: MIC by microdilution, S. aureus ST20131365; format: cell-based, Staphylococcus aureus; details: S. aureus ST20131365 (MecA positive, glycopeptide resistant), in duplicate
Experimental: as §1, §2, §3

S. epidermidis ATCC14990 = experiment: MIC by microdilution, S. epidermidis ATCC14990; format: cell-based, Staphylococcus epidermidis; details: S. epidermidis ATCC14990 (MecA negative, wild-type), in duplicate
Experimental: as §1, §2, §3

S. epidermidis ATCC35984 = experiment: MIC by microdilution, S. epidermidis ATCC35984; format: cell-based, Staphylococcus epidermidis; details: S. epidermidis ATCC35984 (MecA positive), in duplicate
Experimental: as §1, §2, §3

E. faecalis JH2-2 = experiment: MIC by microdilution, E. faecalis JH2-2; format: cell-based, Enterococcus faecalis; set-up: unit not given here; details: E. faecalis JH2-2 (wild-type), in duplicate
Experimental: as §1, §2, §3

E. faecalis UCN41 = experiment: MIC by microdilution, E. faecalis UCN41; format: cell-based, Enterococcus faecalis; set-up: unit not given here; details: E. faecalis UCN41 (VanA positive, glycopeptide resistant), in duplicate
Experimental: as §1, §2, §3

E. faecalis V583 = experiment: MIC by microdilution, E. faecalis V583; format: cell-based, Enterococcus faecalis; details: E. faecalis V583 (VanB positive, glycopeptide resistant), in duplicate
Experimental: as §1, §2, §3

E. faecium ATCC19434T = experiment: MIC by microdilution, E. faecium ATCC19434T; format: cell-based, Enterococcus faecium; set-up: unit not given here; details: E. faecium ATCC19434T (wild-type), in duplicate
Experimental: as §1, §2, §3

E. faecium BM4147 = experiment: MIC by microdilution, E. faecium BM4147; format: cell-based, Enterococcus faecium; set-up: unit not given here; details: E. faecium BM4147 (VanA positive, glycopeptide resistant), in duplicate
Experimental: as §1, §2, §3

E. faecium AUS0004 = experiment: MIC by microdilution, E. faecium AUS0004; format: cell-based, Enterococcus faecium; details: E. faecium AUS0004 (VanB positive, glycopeptide resistant), in duplicate
Experimental: as §1, §2, §3

E. coli ATCC25922 = experiment: MIC by microdilution, E. coli ATCC25922; format: cell-based, Escherichia coli; details: E. coli ATCC25922 (wild-type), in duplicate
Experimental: as §1, §2, §3

[1] = test system: Clostridium difficile ATCC700057; experiment: MIC by microdilution, Clostridium difficile; format: cell-based; details: strain ATCC70057 [sic] (Tables 1-2) / ATCC700057 (Tables 3-10), in duplicate
[2] = test system: panel of Gram-positive and Gram-negative strains; experiment: Antibacterial profile on the selected panel of strains; format: cell-based; details: summary of Tables 1-12
Experimental: as §1, §2, §3

[3] = test system: S. epidermidis ST20150446; experiment: MIC by microdilution, S. epidermidis ST20150446; format: cell-based, Staphylococcus epidermidis; details: S. epidermidis ST20150446 (MecA positive, glycopeptide resistant), in duplicate
Experimental: as §1, §2, §3

[4] = test system: S. epidermidis ST20140436; experiment: MIC by microdilution, S. epidermidis ST20140436; format: cell-based, Staphylococcus epidermidis; details: S. epidermidis ST20140436 (MecA positive, glycopeptide resistant), in duplicate
Experimental: as §1, §2, §3

Structure (SMILES) | Minimal Inhibitory Concentration (MIC) (S. aureus ATCC25923) | Minimal Inhibitory Concentration (MIC) (S. aureus ATCC29213) | Minimal Inhibitory Concentration (MIC) (S. aureus ATCC700699) | Minimal Inhibitory Concentration (MIC) (S. aureus ST20131365) | Minimal Inhibitory Concentration (MIC) (S. epidermidis ATCC14990) | Minimal Inhibitory Concentration (MIC) (S. epidermidis ATCC35984) | Minimal Inhibitory Concentration (MIC) (E. faecalis JH2-2) | Minimal Inhibitory Concentration (MIC) (E. faecalis UCN41) | Minimal Inhibitory Concentration (MIC) (E. faecalis V583) | Minimal Inhibitory Concentration (MIC) (E. faecium ATCC19434T) | Minimal Inhibitory Concentration (MIC) (E. faecium BM4147) | Minimal Inhibitory Concentration (MIC) (E. faecium AUS0004) | Minimal Inhibitory Concentration (MIC) (E. coli ATCC25922) | Minimal Inhibitory Concentration (MIC) [1] | antimicrobial / antibacterial activity (in words) [2] | Minimal Inhibitory Concentration (MIC) [3] | Minimal Inhibitory Concentration (MIC) [4]
CC[P+](CC)(CC)[Au-][c]1nn[nH]c1-c1ccc(C(=O)O)cc1 [TMB14] | 0.125 | 0.125 | 0.125 | 0.125 and 0.25 | ≤0.06 | ≤0.06 | 0.5 | 0.5 and 1 | 1 | 0.5 | 0.5 | 0.5 | >8 | 0.125 | have antimicrobial activity |  | 
CC[P+](CC)(CC)[Au-][c]1nn[nH]c1-c1ccc(C(=O)NC(C(=O)NC2C(=O)N3C2SC(C)(C)C3C(=O)O)c2ccccc2)cc1 (centres unmarked) [TMB22] | 0.125 | 0.125 | 0.125 and 0.25 | 0.25 | ≤0.06 |  | 0.5 | 1 | 0.5 | 1 | 1 | 1 | >8 | ≤0.06 | have antimicrobial activity |  | 
CC[P+](CC)(CC)[Au-][c]1nn[nH]c1-c1ccc(C(=O)NC(C(=O)O)c2ccccc2)cc1 (centres unmarked) [TMB23] | ≤0.06 | 0.125 | 0.125 | 0.125 | ≤0.06 |  | 0.25 | 0.125 | 0.125 and 0.25 | 0.25 | 0.25 and 0.5 | 0.25 | >8 | ≤0.06 | have antimicrobial activity | ≤0.06 | 
CC[P+](CC)(CC)[Au-][c]1nn[nH]c1C1CCC(C(=O)O)CC1 (centres unmarked) [TMB25] |  | 0.25 | 0.25 |  | ≤0.06 | ≤0.06 | 0.125 | 0.125 | 0.125 | 0.125 | 0.125 | 0.125 | >8 | ≤0.06 | have antimicrobial activity | 0.125 and 0.25 | 
CC[P+](CC)(CC)[Au-][c]1nn[nH]c1COC(=O)N[C@H](CC(=O)O)C(=O)O [TMB29] | 0.125 | 0.125 | 0.125 | 0.125 | ≤0.06 | ≤0.06 | 0.25 | 0.25 | 0.25 | 0.25 | 0.25 and 0.5 | 0.5 | >8 | ≤0.06 | have antimicrobial activity |  | ≤0.06
CC[P+](CC)(CC)[Au-][c]1nn[nH]c1-c1cn[nH]c1 [TMB31] | ≤0.06 | ≤0.06 | 0.125 |  | ≤0.06 | ≤0.06 | 0.25 | 0.25 | 0.25 | 0.25 | 0.25 | 0.25 | >8 | ≤0.06 | have antimicrobial activity | ≤0.06 | ≤0.06
CC[P+](CC)(CC)[Au-][c]1nn[nH]c1COC(=O)NC(C(=O)O)c1ccccc1 (centres unmarked) [TMB45] | 0.125 | 0.25 | 0.25 | 0.25 | ≤0.06 | ≤0.06 | 0.5 | 0.25 | 0.5 | 0.25 | 0.25 | 0.5 |  | 0.125 | have antimicrobial activity | ≤0.06 | ≤0.06
O=C(CCc1cnn[nH]1)N[C@@H](C(=O)O)c1ccccc1 [TMB46] | >8 | >8 | >8 | >8 | >8 | >8 | >8 | >8 | >8 | >8 | >8 | >8 |  | >8 | do not show an antibacterial activity | >8 | >8
